Assay results taken from US6046228A, “Anti-viral pharmaceutical compositions containing saturated 1,2-dithiaheterocyclic compounds and uses thereof” (priority 1999, dated 2000).

Columns and labels:
Type in all cases: cell-based
U1 cells = assay: U1 cell viability (XTT) and cell number; settings: TNF-α stimulated U1 cells, 48 hours, FIG. 3(A)
Procedure: U1 cells latently infected with two copies of HIV-1 proviral DNA per cell (Clous et al., J. Immunol. 142: 431-438, (1989)) were treated with 5 ng/ml tumor necrosis factor-α(TNF-α) for 24 hours to stimulate production of HIV-1 virions, after which various concentrations of 624151 were added to the cultures and incubated for an additional 48 hours. Cultures were analyzed for cell viability by the XTT reduction assay and cells were counted and scored for viability by trypan blue exclusion. Cells pellets were lysed (0.5% Triton X-100, 300 mM NaCl, 50 mM Tris-HCl, pH 7.6, 10 μg/ml each of Leupeptin and aprotinin (Boehringer Mannheim), 1.8 mg/ml iodoacetamide (Sigma Chemical Co., St. Louis, Mo.) and 1.0 mg/ml the protease inhibitor Pefabloc SC (Boehringer Mannheim at 4° C. for 15 min. and then quantitated for viral p24 content by ELISA. Cell-free supernatant samples were collected and analyzed for virus content by p24 ELISA, and infectivity in cultures of 174xCEM cells. Briefly, serial 1/2 dilutions of the supernatant were placed with 5×10^3 174xCEM cells and cultured for 7 days, cell supernatants were analyzed for viral p24 content, and the number of infectious units/ml calculated. In addition, cell free supernatants were centrifuged at 17,000×g for 1 hour at 4° C. to collect virion pellets. […]

HIV-1IIIB = assay: XTT cytopathicity assay, HIV-1IIIB
Procedure: (§1) Initial anti-HIV screening was performed with CEM-SS cells and HIV-1RFusing the XTT cytoprotection assay as previously described (Weislow et al., J. National Cancer Inst. 81: 577-586, (1989)). HIV-1 isolates included common laboratory stains (RF, IIIB and MN), as well as a panel of HIV-1 clinical isolates (Cushman et al., J. Med. Chem. 37: 3040-3050, (1994)). The pyridone-resistant HIV-1A17 isolate (Nunberg et al., J. Virol., 65: 4887-4892 (1991)) was obtained from Emilio Emini at Merck Sharpe and Dohme Laboratories. Phytohemagglutinin-stimulated human peripheral blood lymphocytes (PBLs) and fresh monocyte-macrophage (Mono/MF) cultures were prepared and utilized in antiviral assays as previously described (Rice et al., Proc. Nat'l. Academy Science, USA 90: 9721-9724, (1993)); (Cushman et al., J. Med. Chem. 37: 3040-3050, (1994)). EC50 values for these cultures indicate the drug concentration that provided a 50% reduction in viral p24 production. […] The compounds can be synthesized according to the teachings of Singh et al., Sulfur Letters 8: 107-114, (1988). The 4,5-cis-dihydroxy(1,1-dioxy-1,2,-dithiohexane) compound (NSC 624151) has been abbreviated as 624151 for convenience. MT-2, MT-4, U1, HeLa-CD4-LTR-β-gal and 174xCEM cells were obtained from the AIDS Research and Reference Program (National Institute of Allergy and Infectious Disease, National Institutes of Health, Bethesda, Md. USA), as were the HIV-2MS and the AZT-resistant HIV-1G910-6 isolates.
(§2) ^a Anti-HIV studies utilizing lymphocytederived cell lines were
(§3) performed using the XTT cytopathicity assay, while antiviral assays

HIV-1 Thiazol-108 = assay: XTT cytopathicity assay, drug resistant HIV-1; settings: MT-2, Thiazol-108
Procedure: as §1, §2, §3

HIV-1 TIBO-98/100 = assay: XTT cytopathicity assay, drug resistant HIV-1; settings: MT-2, TIBO-98/100
Procedure: as §1, §2, §3

HIV-1 DPS-181 = assay: XTT cytopathicity assay, drug resistant HIV-1; settings: MT-2, DPS-181
Procedure: as §1, §2, §3

HIV-1 E-BPTU-181 = assay: XTT cytopathicity assay, drug resistant HIV-1; settings: MT-2, E-BPTU-181
Procedure: as §1, §2, §3

HIV-1 UC38-181 = assay: XTT cytopathicity assay, drug resistant HIV-1; settings: MT-2, UC38-181
Procedure: as §1, §2, §3

HIV-1 Calo-139 = assay: XTT cytopathicity assay, drug resistant HIV-1; settings: MT-2, Calo-139
Procedure: as §1, §2, §3

HIV-1 OC-100 = assay: XTT cytopathicity assay, drug resistant HIV-1; settings: MT-2, OC-100
Procedure: as §1, §2, §3

HIV-1 HEPT-236 = assay: XTT cytopathicity assay, drug resistant HIV-1; settings: MT-2, HEPT-236
Procedure: as §1, §2, §3

For `O=S1(=O)C[C@H](O)[C@H](O)CS1` (relative stereo) [NSC 624151, cis-1,1-dioxo[1,2]dithiane-4,5-diol], the “cell viability (XTT) or cell number” value (U1 cells) was “did not significantly reduce cell viability (XTT) or cell number”, the EC50 (HIV-1IIIB; Human immunodeficiency virus 1, AA5(B, EBV+), HIV-1IIIB) was 2.6e-05 M and the EC50 (HIV-1IIIB; Human immunodeficiency virus 1, CEM-SS, CEM-SS (T), HIV-1IIIB, cell type panel) was 6.1e-06 M. It also gave an EC50 (HIV-1IIIB; Human immunodeficiency virus 1, H9(T), HIV-1IIIB) of 1.3e-05 M, an EC50 (HIV-1IIIB; Human immunodeficiency virus 1, MT-2(T), HIV-1IIIB) of 1.88e-05 M and an EC50 (HIV-1IIIB; Human immunodeficiency virus 1, U-937, U937(M), HIV-1IIIB) of 3.2e-06 M. The EC50 (HIV-1IIIB; Human immunodeficiency virus 1, CEM-SS, IIIB, Laboratory HIV-1) was 2.08e-05 M, the “inhibition of infection by HIV-1IIIB in all cellular phenotypes tested” value (HIV-1IIIB; in words) was “inhibited by 624151 in all cellular phenotypes tested” and the EC50 (HIV-1 Thiazol-108) was 17 µM. The EC50 (HIV-1 TIBO-98/100) was 16 µM, the EC50 (HIV-1 DPS-181) was 16.5 µM and the EC50 (HIV-1 E-BPTU-181) was 17 µM. For the same compound, the EC50 (HIV-1 UC38-181) was 17 µM, the EC50 (HIV-1 Calo-139) was 15 µM and the EC50 (HIV-1 OC-100) was 12.7 µM. The EC50 (HIV-1 HEPT-236) was 16 µM.
